Laboratory results published in patent publication US10765681B2 (Academia Sinica, priority 2016, dated 2020).

SMILES	melting point
NC(=O)c1nc(-c2ccc(O)cc2)nc2c1nc(S)n2-c1ccccc1	361 to 363 °C
C=CCn1c(=O)n(-c2ccccc2OC)c2nc(-c3ccc(OCC)cc3)nc(C#N)c21	144 to 146 °C
COc1ccc(-c2nc(C(N)=O)c3[nH]c(=O)n(-c4ccccc4OC)c3n2)cc1O [Compound 5n, 2-(3-Hydroxy-4-methoxyphenyl)-9-(2-methoxyphenyl)-8-oxopurine-6-carboxamide]	319 to 321 °C
CCOc1ccc(-c2nc(C#N)c3[nH]c(=O)n(-c4ccccc4OC)c3n2)cc1 [Compound 12a, 2-(4-Ethoxyphenyl)-9-(2-methoxyphenyl)-8-oxopurine-6-carbonitrile]	288 to 290 °C
CCOc1ccc(-c2nc(C#N)c3c(n2)n(-c2ccccc2OC)c(=O)n3C)cc1 [Compound 15a, 2-(4-Ethoxyphenyl)-9-(2-methoxyphenyl)-7-methyl-8-oxopurine-6-carbonitrile]	235 to 237 °C
CCOc1ccc(-c2nc(C#N)c3c(n2)n(-c2ccccc2OC)c(=O)n3Cc2ccccc2)cc1 [Compound 15c, 7-Benzyl-2-(4-ethoxyphenyl)-9-(2-methoxyphenyl)-8-oxopurine-6-carbonitrile]	164 to 166 °C
CCOC(=O)Oc1nc2c(C#N)nc(-c3ccc(OCC)cc3)nc2n1-c1ccccc1OC [Compound 17a, 6-Cyano-2-(4-ethoxyphenyl)-9-(2-methoxyphenyl)purin-8-yl ethyl carbonate]	270 to 272 °C
C=CCn1oc(=O)nc1-c1nc(-c2ccc(OCC)cc2)nc2c1n(CC=C)c(=O)n2-c1ccccc1OC [Compound 25a, 2-Allyl-3-[7-allyl-2-(4-ethoxyphenyl)-9-(2-methoxyphenyl)-8-oxopurin-6-yl]-1,2,4-oxadiazol-5-one]	88 to 90 °C

Second part, the compound after the results:

melting point	SMILES
370.2 to 371.8 °C	COc1ccccc1-n1c(=O)[nH]c2c(C(N)=O)nc(-c3ccc(O)cc3)nc21 [Compound 5b, 2-(4-Hydroxyphenyl)-9-(2-methoxyphenyl)-8-oxopurine-6-carboxamide]
322.8 to 324.3 °C	CCOc1ccc(-c2nc(C(N)=O)c3[nH]c(=O)n(-c4cccc([N+](=O)[O-])c4)c3n2)cc1 [Compound 5l, 2-(4-Ethoxyphenyl)-9-(3-nitrophenyl)-8-oxopurine-6-carboxamide]
288 to 290 °C	CCOc1ccc(-c2nc(C(N)=O)c3[nH]c(=O)n(-c4cc(C(F)(F)F)cc(C(F)(F)F)c4)c3n2)cc1 [Compound 5m, 9-(3,5-Bis(trifluoromethyl)phenyl)-2-(4-ethoxyphenyl)-8-oxopurine-6-carboxamide]
321.2 to 321.8 °C (dec.)	CCOc1ccc(-c2nc(C(N)=O)c3nc(S)n(-c4ccccc4)c3n2)cc1 [Compound 10a, 2-(4-Ethoxyphenyl)-9-phenyl-8-mercaptopurine-6-carboxamide]
299 to 301 °C	CCOc1ccc(-c2nc(C(N)=O)c3nc(S)n(-c4cc(C(F)(F)F)cc(C(F)(F)F)c4)c3n2)cc1 [Compound 10c, 9-(3,5-Bis(trifluoromethyl)phenyl)-2-(4-ethoxyphenyl)-8-mercaptopurine-6-carboxamide]
309.7 to 311 °C (dec.)	CCOc1ccc(-c2nc(C(N)=O)c3nc(SC)n(-c4ccccc4)c3n2)cc1 [Compound 11a, 2-(4-Ethoxyphenyl)-8-(methylthio)-9-phenylpurine-6-carboxamide]
297 to 299 °C	CCOc1ccc(-c2nc(C#N)c3[nH]c(=O)n(-c4cccc(C(=O)OC)c4)c3n2)cc1 [Compound 12c, 2-(4-Ethoxyphenyl)-9-(3-methoxycarbonylphenyl)-8-oxopurine-6-carbonitrile]
257 to 259 °C	CCOc1ccc(-c2nc(C(=N)NO)c3[nH]c(=O)n(-c4cccc(C(=O)OC)c4)c3n2)cc1 [Compound 14c, 2-(4-Ethoxyphenyl)-9-(3-methoxycarbonylphenyl)-8-oxopurine-6-(N-hydroxy)carboximidamide]
